Results taken from publication PMC9692725, “Glutathione S-Transferase May Contribute to the Detoxification of (S)-(−)-Palasonin in Plutella xylostella (L.) via Direct Metabolism” (Insects, 2022).

What was measured:
GSTe4 = target: T1, GSTe4 (Plutella xylostella, UniProt X5D048); experiment: CDNB-GSH conjugation, absorbance at […] nm; type: biochemical; details: 1 mM GSH, 100 mM phosphate buffer, CDNB 0.05-1.6 mM
T1 construct: recombinant, pET-30a(+), E. coli BL21(DE3), Ni-NTA purified, about 25 kDa expected
T1 sequence (X5D048 1-220): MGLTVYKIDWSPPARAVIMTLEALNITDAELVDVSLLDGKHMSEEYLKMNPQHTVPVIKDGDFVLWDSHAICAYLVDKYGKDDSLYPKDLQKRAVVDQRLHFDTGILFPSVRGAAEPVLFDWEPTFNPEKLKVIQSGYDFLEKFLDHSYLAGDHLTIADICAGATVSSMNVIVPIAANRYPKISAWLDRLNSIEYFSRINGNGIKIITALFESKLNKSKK

GSTd5 = tested on: T2, GSTd5; experiment: CDNB-GSH conjugation, absorbance at […] nm; type: biochemical, Plutella xylostella; details: 1 mM GSH, 100 mM phosphate buffer, CDNB 0.05-1.6 mM
T2 construct: recombinant, pET-30a(+), E. coli BL21(DE3), Ni-NTA purified, about 25 kDa expected

GSTd2 [1] = target: T3, GSTd2 (Plutella xylostella, UniProt X5CJR6); experiment: CDNB-GSH conjugation, absorbance at […] nm; type: biochemical; details: 1 mM GSH, 100 mM phosphate buffer, CDNB 0.05-1.6 mM
T3 construct: recombinant, pET-30a(+), E. coli BL21(DE3), Ni-NTA purified, about 25 kDa expected
T3 sequence (X5CJR6 1-247): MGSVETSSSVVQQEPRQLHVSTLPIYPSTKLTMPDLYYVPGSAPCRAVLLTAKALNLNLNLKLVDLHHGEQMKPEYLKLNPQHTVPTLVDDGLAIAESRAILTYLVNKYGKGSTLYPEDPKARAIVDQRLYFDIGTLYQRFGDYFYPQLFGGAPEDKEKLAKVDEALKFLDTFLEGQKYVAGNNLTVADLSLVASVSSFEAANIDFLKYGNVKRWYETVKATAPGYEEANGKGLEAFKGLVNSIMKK

GSTs1 [2] = target: T4, GSTs1 (Plutella xylostella, UniProt Q6F443); experiment: CDNB-GSH conjugation, absorbance at […] nm; type: biochemical; details: 1 mM GSH, 100 mM phosphate buffer, CDNB 0.05-1.6 mM
T4 construct: recombinant, pET-30a(+), E. coli BL21(DE3), Ni-NTA purified, about 25 kDa expected
T4 sequence (Q6F443 1-204): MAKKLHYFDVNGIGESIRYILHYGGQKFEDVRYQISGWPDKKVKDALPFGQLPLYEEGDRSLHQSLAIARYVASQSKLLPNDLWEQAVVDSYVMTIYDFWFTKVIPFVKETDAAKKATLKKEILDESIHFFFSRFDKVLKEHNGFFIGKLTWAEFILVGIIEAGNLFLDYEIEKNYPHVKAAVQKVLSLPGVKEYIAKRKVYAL

GSTs2 [3] = target: T5, GSTs2 (Plutella xylostella, UniProt Q6F436); experiment: CDNB-GSH conjugation, absorbance at […] nm; type: biochemical; details: 1 mM GSH, 100 mM phosphate buffer, CDNB 0.05-1.6 mM
T5 construct: recombinant, pET-30a(+), E. coli BL21(DE3), Ni-NTA purified, about 25 kDa expected

GSTd3 = target: T6, GSTd3 (Plutella xylostella, UniProt D7URW9); experiment: CDNB-GSH conjugation, absorbance at […] nm; type: biochemical; details: 1 mM GSH, 100 mM phosphate buffer, CDNB 0.05-1.6 mM
T6 construct: gene PxGSTd; recombinant, pET-30a(+), E. coli BL21(DE3), Ni-NTA purified, about 25 kDa expected
T6 sequence (D7URW9 1-215): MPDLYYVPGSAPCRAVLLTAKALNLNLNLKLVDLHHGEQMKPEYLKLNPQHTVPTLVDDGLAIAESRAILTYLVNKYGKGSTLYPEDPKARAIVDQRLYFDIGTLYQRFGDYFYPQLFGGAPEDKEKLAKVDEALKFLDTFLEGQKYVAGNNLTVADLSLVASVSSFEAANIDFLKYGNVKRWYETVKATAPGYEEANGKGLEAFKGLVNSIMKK

GSTd4 = target: T7, GSTd4 (Plutella xylostella, UniProt X5CCB0); experiment: CDNB-GSH conjugation, absorbance at […] nm; type: biochemical; details: 1 mM GSH, 100 mM phosphate buffer, CDNB 0.05-1.6 mM
T7 construct: recombinant, pET-30a(+), E. coli BL21(DE3), Ni-NTA purified, about 25 kDa expected
T7 sequence (X5CCB0 1-219): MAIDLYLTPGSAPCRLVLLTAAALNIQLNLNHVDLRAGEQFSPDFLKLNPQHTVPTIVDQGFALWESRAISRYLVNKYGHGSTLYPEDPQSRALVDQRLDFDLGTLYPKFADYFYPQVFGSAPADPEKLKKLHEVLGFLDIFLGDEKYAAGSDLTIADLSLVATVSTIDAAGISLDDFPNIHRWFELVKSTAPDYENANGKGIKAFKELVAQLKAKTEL

GSTd1 [4] = target: T8, GSTd1 (Plutella xylostella, UniProt A0A8S4F7H5); experiment: CDNB-GSH conjugation, absorbance at […] nm; type: biochemical; details: 1 mM GSH, 100 mM phosphate buffer, CDNB 0.05-1.6 mM
T8 construct: gene PLXY2_LOCUS7699; recombinant, pET-30a(+), E. coli BL21(DE3), Ni-NTA purified, about 25 kDa expected
T8 sequence (A0A8S4F7H5 1-243 limits assumed): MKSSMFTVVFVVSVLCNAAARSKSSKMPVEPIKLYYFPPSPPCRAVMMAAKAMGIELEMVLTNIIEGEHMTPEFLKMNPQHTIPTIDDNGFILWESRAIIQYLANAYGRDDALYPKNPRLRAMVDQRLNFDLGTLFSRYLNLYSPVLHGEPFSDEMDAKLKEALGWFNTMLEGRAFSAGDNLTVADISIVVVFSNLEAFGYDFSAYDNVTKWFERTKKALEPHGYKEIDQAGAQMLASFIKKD

GSTe5 = target: T9, GSTe5 (Plutella xylostella, UniProt X5CJR9); experiment: CDNB-GSH conjugation, absorbance at […] nm; type: biochemical; details: 1 mM GSH, 100 mM phosphate buffer, CDNB 0.05-1.6 mM
T9 construct: recombinant, pET-30a(+), E. coli BL21(DE3), Ni-NTA purified, about 25 kDa expected
T9 sequence (X5CJR9 1-232): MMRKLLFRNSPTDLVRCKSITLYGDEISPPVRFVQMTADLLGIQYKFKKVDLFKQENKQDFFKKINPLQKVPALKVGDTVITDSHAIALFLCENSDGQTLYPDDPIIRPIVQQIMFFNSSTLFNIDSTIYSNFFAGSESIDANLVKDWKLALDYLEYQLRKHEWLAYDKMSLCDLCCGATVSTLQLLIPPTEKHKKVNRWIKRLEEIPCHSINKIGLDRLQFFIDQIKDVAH

GSTd1 [5] = target: T8, GSTd1; experiment: inhibition of CDNB-GSH conjugation, absorbance at […] nm; type: biochemical; details: CDNB and GSH substrates, PBS, 10 min preincubation at 25 °C; competitive (authors' inference)
GSTs1 [6] = target: T4, GSTs1; experiment: as above; type: biochemical; details: CDNB and GSH substrates, PBS, 10 min preincubation at 25 °C; competitive (authors' inference)
GSTd2 [7] = target: T3, GSTd2; experiment: as above; type: biochemical; details: CDNB and GSH substrates, PBS, 10 min preincubation at 25 °C; competitive (authors' inference)
GSTs2 [8] = target: T5, GSTs2; experiment: as above; type: biochemical; details: CDNB and GSH substrates, PBS, 10 min preincubation at 25 °C; competitive (authors' inference)

T5 sequence (Q6F436 1-204): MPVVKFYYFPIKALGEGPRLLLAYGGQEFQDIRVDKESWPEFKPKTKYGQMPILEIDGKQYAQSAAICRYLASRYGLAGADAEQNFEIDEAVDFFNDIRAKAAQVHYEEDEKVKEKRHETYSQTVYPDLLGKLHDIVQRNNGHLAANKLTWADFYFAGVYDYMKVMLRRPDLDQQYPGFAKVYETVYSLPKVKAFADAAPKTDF

Row | SMILES | Km (GSTe4) | Km (GSTd5) | Km (GSTd2 [1]) | Km (GSTs1 [2]) | Km (GSTs2 [3]) | Km (GSTd3) | Km (GSTd4) | Km (GSTd1 [4]) | Km (GSTe5) | relative activity at 1 mM (GSTd1 [5]) | relative activity at 1 mM (GSTs1 [6]) | relative activity at 1 mM (GSTd2 [7]) | relative activity at 1 mM (GSTs2 [8])
1 | O=[N+]([O-])c1ccc(Cl)c([N+](=O)[O-])c1 [1-chloro-2,4-dinitrobenzene] | 413 µM | 546 µM | 682 µM | 684 µM | 469 µM | 1010 µM | 1120 µM | 691 µM | 705 µM | – | – | – | –
2 | CC12C(=O)OC(=O)C1C1CCC2O1 [(S)-(−)-palasonin] | – | – | – | – | – | – | – | – | – | 0.35 fraction of control | 0.26 fraction of control | 0.55 fraction of control | 0.51 fraction of control
